Reference: publication PMC4172929, “Patched Targeting Peptides for Imaging and Treatment of Hedgehog Positive Breast Tumors” (BioMed Research International, 2014)

System: 13762 breast carcinoma xenografts
Assay: Paclitaxel treatment of tumor xenografts (PTCH immunohistochemistry, tumor volume)
Assay type: in vivo, rat
Settings: rats, 20 mg/kg paclitaxel
Description: All animal work was carried out in the Small Animal Imaging Facility (SAIF) at the University of Texas M.D. Anderson Cancer Center under an approved Institutional Animal Care and Use Committee (IACUC) protocol. Female Fischer 344 rats (150 ± 25 g, n = 6) (Harlan Sprague-Dawley, Indianapolis, IN) were inoculated subcutaneously with 0.1 mL of a 13762 breast carcinoma cell suspension (10^5 cells/rat of a breast tumor cell line specific to Fischer rats) into the hind legs using 25-gauge needles. Studies were performed 12–14 days after inoculation when tumors reached approximately 1 cm in diameter. For treatment studies, rats were injected with 20 mg/kg paclitaxel and reimaged 7 days later. After the posttreatment scan, tumors were removed and formalin sections were made. Control tumors were taken from untreated […] 13 days after inoculation. Sections were stained with an anti-patched antibody (Santa Cruz) using a peroxide-based immunohistochemical detection kit (Dako) according to the manufacturer's instructions.

CC(=O)O[C@H]1C(=O)[C@@]2(C)[C@H]([C@H](OC(=O)c3ccccc3)[C@]3(O)C[C@H](OC(=O)[C@H](O)[C@@H](NC(=O)c4ccccc4)c4ccccc4)C(C)=C1C3(C)C)[C@]1(OC(C)=O)CO[C@@H]1C[C@@H]2O [paclitaxel]
tumor volume after treatment: decrease | PTCH protein expression in the residual tumor (seven days after treatment, immunohistochemistry): increase
